# Experimental data from US20180055888A1, “COMPOSITIONS AND METHODS FOR ENHANCING THE THERAPEUTIC POTENTIAL OF STEM CELLS” (priority 2013, published 2018).
# Experiments:
# [1] = test system: mouse model for hind limb peripheral ischemia; assay: In vivo assessment of limb function (graded scale), mouse hind limb ischemia model; set-up: species or system Mouse/Athymic Nude; settings: Day 35, imputed data, group median, rank 1 best of 10 groups
# Description: Disclosed herein is the testing of BM MSCs in a mouse model for hind limb peripheral ischemia. Peripheral artery disease (PAD) is a form of peripheral vascular diseases (PVD) in which there are partial or total blockage of blood supply to a limb, usually the leg, leading to impaired blood flow and hypoxia in the tissue. When PAD advances it reaches the stage of critical limb ischemia (CLI) with skin ulcerations, gangrene and unavoidable amputations. […]
# In vivo assessment of limb function and Ischemic damage. Semi-quantitative assessment of impaired use of the ischemic limb was performed once a week post-surgery using the following scale (Stabile et al., Circulation. 2003; 15; 108{2):205-210). […]
# In vivo assessment of limb function. Semi-quantitative assessment of impaired use of the ischemic limb was performed on days 7 up to 35 by using graded functional scales. […]
# (§1) In further analyses the imputation of missing data is done in the following way: Blood Flow (%): Value of the first measurement after the surgery (assumption is that treatment failed so that there is no improvement beyond what was observed immediately after surgery); Ischemic Severity Score: 4=“Total Hind-Limb Loss” (the worst score possible); Limb Function 3=“Dragging of foot” (the worst score possible); Weight (g): The animal's lowest weight at any of the points measured up to and including the day of amputation.
# [2] = test system: mouse model for hind limb peripheral ischemia; assay: Animal disposition (amputations, completion of 35 days follow-up), mouse hind limb ischemia model; format: in vivo; settings: for Completed % (completed 35 days follow-up) / Imputed % (amputation after day 14, attributed to treatment failure): % of animals of the group; for Completed N (completed 35 days follow-up) / Imputed N (amputation after day 14, attributed to treatment failure): number of animals of the group
# Description: A major problem in pre-clinical studies is often the high drop-out rate of animals due to treatment related failure (amputations after day 14 post surgery) or unrelated to treatment (e.g. death during anesthesia, or amputations before day 14 post surgery). Only a few animals had to be excluded from statistical analysis due to the latter reason.
# (§2) Disclosed herein is the testing of BM MSCs in a mouse model for hind limb peripheral ischemia. Peripheral artery disease (PAD) is a form of peripheral vascular diseases (PVD) in which there are partial or total blockage of blood supply to a limb, usually the leg, leading to impaired blood flow and hypoxia in the tissue. When PAD advances it reaches the stage of critical limb ischemia (CLI) with skin ulcerations, gangrene and unavoidable amputations. One of the most promising innovative treatments for diabetic vascular complications is stem cell-based products that enhance angiogenesis (TRefl-3) Hind limb ischemia animal models have been used to evaluate various therapeutic approaches addressing stem cell transplantation.
# Under anesthesia, the mouse was placed with ventral side up. A 0.5-1.0 cm incision was made in the skin in the inguinal area. The femoral artery was ligated twice with 6-0 silk thread and transected between the ligatures. The wound was closed with 4-0 silk thread and the mouse was allowed to recover.
# On DAY 1, 24 hours post-surgery, each treated animal was injected intramuscular at two sites (the proximal and the distal side of the surgical wound) or intravenous into the tail vein. For intramuscular injection the animals were injected 50 μl at each site, total 100 μl per animal. For intravenous injection the animals were injected by 200 μl per animal.
# as §1
# [3] = test system: mouse model for hind limb peripheral ischemia; assay: Macroscopic evaluation of ischemic severity (morphological grades for necrotic area), mouse hind limb ischemia model; format: in vivo, Mouse/Athymic Nude; settings: Day 35, imputed data, group median, rank 1 best of 10 groups
# Description: as §2
# Under anesthesia, the mouse was placed with ventral side up. A 0.5-1.0 cm incision was made in the skin in the inguinal area. The femoral artery was ligated twice with 6-0 silk thread and transected between the ligatures. […]
# (§3) Body weight was measured on study day −1 prior to the surgery and once weekly thereafter. Blood flow measurement: Blood flow in legs from both sides was measured with a non-contact Laser Doppier before surgery and on days: 1, 3, 7, 14, 21, 28 and 35 post operation. Blood flow measurements were expressed as the ratio of the flow in the ischemic limb to that in the normal limb (Goto et al. Tokai J Exp Clin Med., Vol. 31, No. 3, pp. 128-132, 2006). […]
# [4] = test system: mouse model for hind limb peripheral ischemia; assay: Blood flow measurement (non-contact Laser Doppler), mouse hind limb ischemia model; format: in vivo, Mouse/Athymic Nude; settings: for Rank of treatment group, Blood Flow: Day 35, imputed data, group median, rank 1 best of 10 groups
# Description: as §2
# Animal handling was according to the National Institute of Health (NIH) and the Association for Assessment and Accreditation of Laboratory Animal Care (AAALAC). Animals were housed in polysufone (PSU) cages (7-8/cage) measuring […] cm, with stainless steel top grill having facilities for pelleted food and drinking water in glass-clear polycarbonate bottle; bedding: steam sterilized clean paddy husk (Harlan, Sani-chip, Cat#: 106S8216) was used and bedding material was changed along with the cage at least twice a week. Animals were fed ad libitum a commercial rodent diet (Teklad Certified Global 18% Protein Diet cat #: 106S8216). Animals have free access to autoclaved and acidified drinking water (pH between 2.5 and 3.5) obtained from the municipality supply. Animals were housed under standard laboratory conditions, air conditioned and filtered (HEPA F6/6) with adequate fresh air supply (Minimum 15 air changes/hour). Animals were kept in a climate controlled environment. Temperatures range was 20-24° C. and RH range was 30-70% with 12 hours light and 12 hours dark cycle. Species/Strain: Mouse/Athymic Nude; Gender/Number/Age: Male/152/9-10 weeks; Source: Harlan Laboratories, Israel; Body weight: The average body weight was 28.4 g at study initiation (day 1). The minimum and maximum weights of the group were within a range of ±20% of group mean weight; Acclimation period: 5-10 days; Identification: Three position ear notching and cage cards. […] Surgery Day was defined as “DAY 0” in this study. On the day of surgery anesthesia was induced by 1.5 to 3.0% isofiurane, 1.5% N2O and 0.5% O2. […]
# as §3
# [5] = test system: mouse model for hind limb peripheral ischemia; assay: Ranking analysis / overall evaluation of all parameters, mouse hind limb ischemia model; format: in vivo, Mouse/Athymic Nude; settings: for Factor 2: Difference between ranks of adjacent-ranked groups / Factor by which average rank differs from the top-ranked group (4) / Average Rank: Day 35, imputed data; for Average Rank: average over Blood Flow, Limb Function, Ischemic Severity Score
# Description: Study end points were: Clinical score; Body weight measurements; Blood flow measurements Ranking analysis: Each group was given a ranking from 1 to 10 on each of the first 3 endpoints measured (% Blood Flow, Limb Function and Ischemic Severity Score). Rank=1 is highest and Rank=10 is lowest. When two groups are tied, both receive the same rank “in the middle”; e.g. if two groups were tied in Rank=4, both received the score 4.5 (twice of which is the sum of ranks 4 and 5). For each endpoint, the median was computed for each group (the median was used to ensure that extreme value will not affect results). On each endpoint, groups were sorted by median and each given its respective rank. The average rank was computed for each group over all endpoints
# While paired comparisons were done, central results are presented in a way in that they are statistically relevant and can be clearly depicted in graphics. Data are consistent across endpoints and are consistent across different analysis. To obtain this picture we eliminated Weight from consideration. […] Each group was ranked on remaining 3 endpoints on day 35 and assessed Average Rank of groups—a measure combining results from all endpoints.
# Evaluating all Parameters Concurrently at Day 35. Procedure: For each parameter (Blood Flow (%), Limb Function and Ischemic Severity Score) the median in the group across all animals was computed. All the groups based on their median from 1 to 10, where 1 is best, were ranked on each of the following parameters: Blood Flow {%)—highest is 1, lowest is 10; Limb Function—highest is 10, lowest is 1 (worst category is 3, best is 0); Ischemic Severity Score—highest is 10, lowest is 1 (worst category is 4, best is 0); Finally, for each group we computed the average rank over the three parameters.
smiles,measurement,setting,value
"Cc1ccc2c(c1)C(=O)C1(O)CCN(c3ccccc3)C1=N2 (centres unmarked) [DMEM + BB, blebbistatin]","Rank of treatment group, Limb Function",[1]; im,5
same,"Rank of treatment group, Limb Function",[1]; iv,5
same,Completed % (completed 35 days follow-up),[2]; im,82.4%
same,"Imputed % (amputation after day 14, attributed to treatment failure)",[2]; im,0%
same,Completed N (completed 35 days follow-up),[2]; im,14
same,"Imputed N (amputation after day 14, attributed to treatment failure)",[2]; im,0
same,Completed % (completed 35 days follow-up),[2]; iv,93.3%
same,"Imputed % (amputation after day 14, attributed to treatment failure)",[2]; iv,0%
same,Completed N (completed 35 days follow-up),[2]; iv,14
same,"Imputed N (amputation after day 14, attributed to treatment failure)",[2]; iv,0
same,"Rank of treatment group, Ischemic Severity Score",[3]; im,6
same,"Rank of treatment group, Ischemic Severity Score",[3]; iv,6
same,regeneration of blood flow,"[4]; blebbistatin alone, without cells, FIGS. 1A-B",no effect on the regeneration of blood flow
same,"Rank of treatment group, Blood Flow",[4]; im,6.5
same,regeneration in blood flow over time,"[4]; intramuscular, FIG. 1A",marginally recovery effects
same,"Rank of treatment group, Blood Flow",[4]; iv,6.5
same,overall efficacy in the model,[5]; conclusion over endpoints,no beneficial effect
same,Factor 2: Difference between ranks of adjacent-ranked groups,[5]; im,0.8
same,Factor by which average rank differs from the top-ranked group (4),[5]; im,4.7
same,Average Rank,[5]; im,5.8
same,Factor 2: Difference between ranks of adjacent-ranked groups,[5]; iv,0.0
same,Factor by which average rank differs from the top-ranked group (4),[5]; iv,4.7
same,Average Rank,[5]; iv,5.8
